Measurements published in patent US9187490B2, “Dimeric IAP inhibitors” (TetraLogic Pharmaceuticals Corporation, priority 2005, dated 2015).
Like-named read-outs stand apart in the source and are kept apart here.

Biological target: T1, XIAP-BIR3 (Homo sapiens, UniProt P98170)
T1 construct: 40 nM of XIAP-BIR3 for 15 min at RT
Test: XIAP BIR-3 fluorescence polarization binding assay
Settings: read-out: KD Range
Procedure: Following incubation, the polarization values (mP) were measured on a Victor^2V using a 485 nm excitation filter and a 520 nm emission filter. IC50 values were determined from the plot using nonlinear least-squares analysis using GraphPad Prism.

[1] = 5 nM AbuRPF-K(5-Fam)-NH2, 40 nM XIAP-BIR3, 15 min RT, pH 7.5

T1 sequence (P98170 241-356 limits assumed): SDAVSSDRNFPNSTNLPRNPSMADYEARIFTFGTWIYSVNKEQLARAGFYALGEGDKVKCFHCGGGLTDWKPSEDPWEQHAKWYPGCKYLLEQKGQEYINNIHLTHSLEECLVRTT

Row | Kd [1] | Kd (Example 4 series) | Structure (SMILES)
1 | < 100 nM |  | C[C@H](N)C(=O)N[C@H](C(=O)N1CCC[C@H]1Cc1c(-c2ccc(-c3[nH]c4cc(F)ccc4c3C[C@@H]3CCCN3C(=O)[C@@H](NC(=O)[C@H](C)N)C3CCCCC3)cc2)[nH]c2cc(F)ccc12)C1CCCCC1 [Entry 39]
2 | < 100 nM |  | CN[C@@H](C)C(=O)N[C@H](C(=O)N1C[C@@H](O)C[C@H]1Cc1c(-c2ccc(-c3[nH]c4ccc(F)cc4c3C[C@@H]3C[C@H](O)CN3C(=O)[C@@H](NC(=O)[C@H](C)NC)C(C)(C)C)cc2)[nH]c2ccc(F)cc12)C(C)(C)C [Entry 41]
3 | < 100 nM |  | CN[C@@H](C)C(=O)N[C@H](C(=O)N1CCC[C@H]1Cc1c(-c2ccc(-c3c(C[C@@H]4CCCN4C(=O)[C@@H](NC(=O)[C@H](C)NC)C(C)(C)C)c4ccc(F)cc4n3CCOC)cc2)n(CCOC)c2cc(F)ccc12)C(C)(C)C [Entry 51]
4 | < 100 nM |  | COCCn1c(-c2ccc(-c3c(C[C@@H]4CCCN4C(=O)[C@@H](NC(=O)[C@H](C)N)C(C)C)c4ccc(F)cc4n3CCOC)cc2)c(C[C@@H]2CCCN2C(=O)[C@@H](NC(=O)[C@H](C)N)C(C)C)c2ccc(F)cc21 [Entry 53]
5 | < 100 nM |  | CN[C@@H](C)C(=O)N[C@H](C(=O)N1CCC[C@H]1Cc1c(-c2ccc(-c3c(C[C@@H]4CCCN4C(=O)[C@@H](NC(=O)[C@H](C)NC)C(C)(C)C)c4cc(F)ccc4n3CCO)cc2)n(CCO)c2ccc(F)cc12)C(C)(C)C [Entry 54]
6 | < 100 nM |  | CN[C@@H](C)C(=O)N[C@H](C(=O)N1CCC[C@H]1Cc1c(-c2ccc(-c3c(C[C@@H]4CCCN4C(=O)[C@@H](NC(=O)[C@H](C)NC)C(C)(C)C)c4ccc(F)cc4n3C)cc2)n(C)c2cc(F)ccc12)C(C)(C)C [Entry 59]
7 | < 100 nM |  | CN[C@@H](C)C(=O)N[C@H](C(=O)N1CCC[C@H]1Cc1c(-c2ccc(-c3c(C[C@@H]4CCCN4C(=O)[C@@H](NC(=O)[C@H](C)NC)C(C)C)c4ccc(F)cc4n3CCOC(C)=O)cc2)[nH]c2cc(F)ccc12)C(C)C [Entry 64]
8 |  | < 100 nM | CNC(C)C(=O)NC(C(=O)N1CCCC1Cc1c(-c2[nH]c3cc(F)ccc3c2CC2CCCN2C(=O)C(NC(=O)C(C)NC)C(C)O)[nH]c2cc(F)ccc12)C(C)O (stereo not drawn) [Entry 72]
9 |  | < 100 nM | CN[C@@H](C)C(=O)N[C@H](C(=O)N1CCC[C@H]1Cc1c(-c2[nH]c3cc(F)ccc3c2C[C@@H]2CCCN2C(=O)[C@@H](NC(=O)[C@H](C)NC)C(C)C)[nH]c2cc(F)ccc12)C(C)C [Entry 73]
10 |  | < 100 nM | CN[C@@H](C)C(=O)N[C@H](C(=O)N1CCC[C@H]1Cc1c(-c2[nH]c3cc(F)ccc3c2C[C@@H]2CCCN2C(=O)[C@@H](NC(=O)[C@H](C)N)C(C)C)[nH]c2cc(F)ccc12)C(C)C [Entry 74]
11 |  | < 100 nM | CNC(C)C(=O)NC(C(=O)N1CCCC1Cc1c(-c2[nH]c3cc(F)ccc3c2CC2CCCN2C(=O)C(NC(=O)C(C)NC)C(C)O)[nH]c2cc(F)ccc12)C(C)O (stereo not drawn) [Entry 78]
12 |  | < 100 nM | CC[C@H](NC(=O)[C@H](C)NC)C(=O)N1CCC[C@H]1Cc1c(-c2[nH]c3cc(F)ccc3c2C[C@@H]2CCCN2C(=O)[C@H](CC)NC(=O)[C@H](C)NC)[nH]c2cc(F)ccc12 [Entry 79]
13 |  | 100 to 1000 nM | CC(C)[C@H](NC(=O)CN)C(=O)N1CCC[C@H]1Cc1c(-c2[nH]c3cc(F)ccc3c2C[C@@H]2CCCN2C(=O)[C@@H](NC(=O)CN)C(C)C)[nH]c2cc(F)ccc12 [Entry 81]
14 |  | < 100 nM | CN[C@@H](C)C(=O)N[C@H](C(=O)N1CCC[C@H]1Cc1c(-c2[nH]c3ccc(F)cc3c2C[C@@H]2CCCN2C(=O)[C@@H](NC(=O)[C@H](C)NC)C2CCCCC2)[nH]c2ccc(F)cc12)C1CCCCC1 [Entry 83]
15 |  | < 100 nM | CNC(C)C(=O)NC(C(=O)N1CC(O)CC1Cc1c(-c2[nH]c3cc(F)ccc3c2CC2CC(O)CN2C(=O)C(NC(=O)C(C)NC)C(C)O)[nH]c2cc(F)ccc12)C(C)O (stereo not drawn) [Entry 86]
16 |  | < 100 nM | CN[C@@H](C)C(=O)N[C@H](C(=O)N1C[C@@H](O)C[C@H]1Cc1c(-c2[nH]c3cc(F)ccc3c2C[C@@H]2C[C@H](O)CN2C(=O)[C@@H](NC(=O)[C@H](C)NC)C(C)C)[nH]c2cc(F)ccc12)C(C)C [Entry 87]

Second part, the compound before the results:

Row | Structure (SMILES) | Kd [1] | Kd (Example 4 series)
17 | CN[C@@H](C)C(=O)N[C@H](C(=O)N1C[C@@H](O)C[C@H]1Cc1c(-c2ccc(-c3[nH]c4ccc(F)cc4c3C[C@@H]3C[C@H](O)CN3C(=O)[C@@H](NC(=O)[C@H](C)NC)C(C)C)cc2)[nH]c2ccc(F)cc12)C(C)C [Entry 40] | 100 to 1000 nM | 
18 | CN[C@@H](C)C(=O)N[C@H](C(=O)N1CCC[C@H]1Cc1c(-c2ccc(-c3c(C[C@@H]4CCCN4C(=O)[C@@H](NC(=O)[C@H](C)N)[C@@H](C)O)c4ccc(F)cc4n3CCO)cc2)n(CCO)c2cc(F)ccc12)[C@@H](C)O [Entry 43] | < 100 nM | 
19 | CN[C@@H](C)C(=O)N[C@H](C(=O)N1CCC[C@H]1Cc1c(-c2ccc(-c3c(C[C@@H]4CCCN4C(=O)[C@@H](NC(=O)[C@H](C)NC)[C@@H](C)O)c4ccc(F)cc4n3CCO)cc2)n(CCO)c2cc(F)ccc12)[C@@H](C)O [Entry 44] | < 100 nM | 
20 | CN[C@@H](C)C(=O)N[C@H](C(=O)N1CCC[C@H]1Cc1c(-c2ccc(-c3c(C[C@@H]4CCCN4C(=O)[C@@H](NC(=O)[C@H](C)N)[C@@H](C)O)c4ccc(F)cc4n3CCOC(C)=O)cc2)n(CCOC(C)=O)c2cc(F)ccc12)[C@@H](C)O [Entry 45] | < 100 nM | 
21 | CN[C@@H](C)C(=O)N[C@H](C(=O)N1CCC[C@H]1Cc1c(-c2ccc(-c3c(C[C@@H]4CCCN4C(=O)[C@@H](NC(=O)[C@H](C)NC)C(C)C)c4ccc(F)cc4n3CCO)cc2)n(CCO)c2cc(F)ccc12)C(C)C [Entry 46] | < 100 nM | 
22 | CN[C@@H](C)C(=O)N[C@H](C(=O)N1CCC[C@H]1Cc1c(-c2ccc(-c3c(C[C@@H]4CCCN4C(=O)[C@@H](NC(=O)[C@H](C)NC)C(C)C)c4ccc(F)cc4n3CCOC(C)=O)cc2)n(CCOC(C)=O)c2cc(F)ccc12)C(C)C [Entry 47] | < 100 nM | 
23 | CN[C@@H](C)C(=O)N[C@H](C(=O)N1CCC[C@H]1Cc1c(-c2ccc(-c3c(C[C@@H]4CCCN4C(=O)[C@@H](NC(=O)[C@H](C)NC)C(C)(C)C)c4ccc(F)cc4n3CCOC(C)=O)cc2)n(CCOC(C)=O)c2cc(F)ccc12)C(C)(C)C [Entry 49] | < 100 nM | 
24 | CN[C@@H](C)C(=O)N[C@H](C(=O)N1CCC[C@H]1Cc1c(-c2ccc(-c3c(C[C@@H]4CCCN4C(=O)[C@@H](NC(=O)[C@H](C)NC)[C@@H](C)O)c4ccc(F)cc4n3CCOC)cc2)n(CCOC)c2cc(F)ccc12)[C@@H](C)O [Entry 50] | < 100 nM | 
25 | CN[C@@H](C)C(=O)N[C@H](C(=O)N1CCC[C@H]1Cc1c(-c2ccc(-c3c(C[C@@H]4CCCN4C(=O)[C@@H](NC(=O)[C@H](C)NC)C(C)C)c4ccc(F)cc4n3CCOC)cc2)n(CCOC)c2cc(F)ccc12)C(C)C [Entry 52] | < 100 nM | 
26 | CN[C@@H](C)C(=O)N[C@H](C(=O)N1CCC[C@H]1Cc1c(-c2ccc(-c3c(C[C@@H]4CCCN4C(=O)[C@@H](NC(=O)[C@H](C)NC)C(C)C)c4cc(F)ccc4n3CCO)cc2)n(CCO)c2ccc(F)cc12)C(C)C [Entry 55] | < 100 nM | 
27 | CN[C@@H](C)C(=O)N[C@H](C(=O)N1CCC[C@H]1Cc1c(-c2ccc(-c3c(C[C@@H]4CCCN4C(=O)[C@@H](NC(=O)[C@H](C)NC)[C@@H](C)O)c4cc(F)ccc4n3CCO)cc2)n(CCO)c2ccc(F)cc12)[C@@H](C)O [Entry 56] | < 100 nM | 
28 | CN[C@@H](C)C(=O)N[C@H](C(=O)N1CCC[C@H]1Cc1c(-c2ccc(-c3c(C[C@@H]4CCCN4C(=O)[C@@H](NC(=O)[C@H](C)NC)C(C)C)c4ccc(F)cc4n3C)cc2)n(C)c2cc(F)ccc12)C(C)C [Entry 57] | < 100 nM | 
29 | CN[C@@H](C)C(=O)N[C@H](C(=O)N1CCC[C@H]1Cc1c(-c2ccc(-c3c(C[C@@H]4CCCN4C(=O)[C@@H](NC(=O)[C@H](C)NC)[C@@H](C)O)c4ccc(F)cc4n3C)cc2)n(C)c2cc(F)ccc12)[C@@H](C)O [Entry 58] | < 100 nM | 
30 | CN[C@@H](C)C(=O)N[C@H](C(=O)N1CCC[C@H]1Cc1c(-c2ccc(-c3c(C[C@@H]4CCCN4C(=O)[C@@H](NC(=O)[C@H](C)NC)C(C)C)c4ccc(F)cc4n3CCO)cc2)[nH]c2cc(F)ccc12)C(C)C [Entry 67] | < 100 nM | 
31 | CN[C@H](C)C(=O)N[C@H](C(=O)N1CCC[C@H]1Cc1c(-c2ccc(-c3c(C[C@@H]4CCCN4C(=O)[C@@H](NC(=O)[C@@H](C)NC)C(C)(C)C)c4ccc(F)cc4n3CCO)cc2)[nH]c2cc(F)ccc12)C(C)(C)C [Entry 71] | 100 to 1000 nM | 
32 | CN[C@@H](C)C(=O)N[C@H](C(=O)N1CCC[C@H]1Cc1c(-c2[nH]c3ccc(F)cc3c2C[C@@H]2CCCN2C(=O)[C@@H](NC(=O)[C@H](C)NC)C(C)C)[nH]c2ccc(F)cc12)C(C)C [Entry 75] |  | < 100 nM
33 | CN[C@@H](C)C(=O)NCC(=O)N1CCC[C@H]1Cc1c(-c2[nH]c3cc(F)ccc3c2C[C@@H]2CCCN2C(=O)CNC(=O)[C@H](C)NC)[nH]c2cc(F)ccc12 [Entry 76] |  | 100 to 1000 nM
34 | CN[C@@H](C)C(=O)N[C@@H](C)C(=O)N1CCC[C@H]1Cc1c(-c2[nH]c3cc(F)ccc3c2C[C@@H]2CCCN2C(=O)[C@H](C)NC(=O)[C@H](C)NC)[nH]c2cc(F)ccc12 [Entry 77] |  | 100 to 1000 nM
35 | CNC(C)C(=O)NC(C(=O)N1CCCC1Cc1c(-c2[nH]c3ccc(F)cc3c2CC2CCCN2C(=O)C(NC(=O)C(C)NC)C(C)O)[nH]c2ccc(F)cc12)C(C)O (stereo not drawn) [Entry 80] |  | < 100 nM
36 | CCC(C)[C@H](NC(=O)[C@H](C)NC)C(=O)N1CCC[C@H]1Cc1c(-c2[nH]c3ccc(F)cc3c2C[C@@H]2CCCN2C(=O)[C@@H](NC(=O)[C@H](C)NC)C(C)CC)[nH]c2ccc(F)cc12 (stereo partly drawn) [Entry 82] |  | < 100 nM
37 | CN[C@@H](C)C(=O)N[C@H](C(=O)N1CCC[C@H]1Cc1c(-c2[nH]c3cc(F)ccc3c2C[C@@H]2CCCN2C(=O)[C@@H](NC(=O)[C@H](C)NC)C(C)(C)C)[nH]c2cc(F)ccc12)C(C)(C)C [Entry 84] |  | < 100 nM
38 | CN[C@@H](C)C(=O)N[C@H](C(=O)N1CCC[C@H]1Cc1c(-c2[nH]c3cc(F)ccc3c2C[C@@H]2CCCN2C(=O)[C@@H](NC(=O)[C@H](C)NC)C2CCCCC2)[nH]c2cc(F)ccc12)C1CCCCC1 [Entry 85] |  | < 100 nM
39 | CNC(C)C(=O)NC(C(=O)N1CC(O)CC1Cc1c(-c2[nH]c3cc(F)ccc3c2CC2CC(O)CN2C(=O)C(NC(=O)C(C)NC)C(C)OC)[nH]c2cc(F)ccc12)C(C)OC (stereo not drawn) [Entry 88] |  | < 100 nM
